The results in this text go back to ChEMBL document CHEMBL1781881, “Adenosine-derived inhibitors of 78 kDa glucose regulated protein (Grp78) ATPase: insights into isoform selectivity” (J Med Chem, 2011).

Assay [1] in a line: Inhibition of HSP70 by fluorescence polarization assay.
The next assay concerns HCT-116. The experiment in a line: Antiproliferative activity against human HCT116 cells. Format: functional.

Broadly, the Ki is a measure of affinity in units of concentration, obtained from inhibition or displacement. In assay [1], `CNc1nc2c(N)ncnc2n1[C@@H]1O[C@H](COCc2cccnc2)[C@@H](O)[C@H]1O` displayed a Ki of 0.45 µM.
The term GI50 denotes the concentration that inhibits growth by half. Low values mean greater sensitivity of the cells, high ones lower sensitivity of the cells. In the case of `Nc1ncnc2c1nc(NCc1ccc(Cl)c(Cl)c1)n2[C@@H]1O[C@H](CO)[C@@H](O)[C@H]1O`, the GI50 with HCT-116 was 26 µM. The inhibitory constant (Ki) in assay [1] is 4.31 µM.
Regarding `Nc1ncnc2c1ncn2[C@@H]1O[C@H](COP(=O)(O)OP(=O)(O)O)[C@@H](O)[C@H]1O` [ADENOSINE DIPHOSPHATE], the Ki in assay [1] was 0.11 µM.
Consider `Nc1ncnc2c1nc(NCc1ccc3ncccc3c1)n2[C@@H]1O[C@H](CO)[C@@H](O)[C@H]1O`, for which the GI50 in the assay with HCT-116 was above 80 µM. The Ki in assay [1] stood at 1.29 µM.
On to `Nc1ncnc2c1nc(NCc1ccc3ccccc3n1)n2[C@@H]1O[C@H](CO)[C@@H](O)[C@H]1O`, for which the Ki in assay [1] worked out at 4.32 µM.
As to `COC[C@H]1O[C@@H](n2c(NCc3ccc(Cl)c(Cl)c3)nc3c(N)ncnc32)[C@H](O)[C@@H]1O`, in assay [1], the Ki came out at 1.44 µM.
Compound `Nc1ncnc2c1nc(N)n2[C@@H]1O[C@H](CO)[C@@H](O)[C@H]1O` registered a GI50 in the assay with HCT-116 of 0.05 µM. In assay [1], this compound came in with a Ki of 4.46 µM.
The matching figures for `N#Cc1ccc(COC[C@H]2O[C@@H](n3c(NCc4ccc5ncccc5c4)nc4c(N)ncnc43)[C@H](O)[C@@H]2O)cc1`: above 80 µM and 0.31 µM.
`CNc1nc2c(N)ncnc2n1[C@@H]1O[C@H](COCc2ccccc2)[C@@H](O)[C@H]1O` registered a Ki in assay [1] of 1.1 µM.
In turn, `Nc1ncnc2c1nc(NCc1ccc(Cl)c(Cl)c1)n2[C@@H]1O[C@H](COCc2ccccc2)[C@@H](O)[C@H]1O` registered a Ki in assay [1] of 1.05 µM.
In the assay with HCT-116, `N#Cc1ccc(COC[C@H]2O[C@@H](n3c(NCc4ccc(Cl)c(Cl)c4)nc4c(N)ncnc43)[C@H](O)[C@@H]2O)cc1` displayed a GI50 of 5 µM. In assay [1], this compound came in with a Ki of 0.12 µM.
`CNc1nc2c(N)ncnc2n1[C@@H]1O[C@H](CO)[C@@H](O)[C@H]1O` came in with a Ki in assay [1] of 8.3 µM.
`CNc1nc2c(N)ncnc2n1[C@@H]1O[C@H](COCC2CCCCC2)[C@@H](O)[C@H]1O`: the Ki in assay [1] is 4.07 µM.
